Results taken from paper PMC11253624, “Unsaturated fatty acid perturbation combats emerging triazole antifungal resistance in the human fungal pathogen Aspergillus fumigatus” (mBio, 2024).
Values after ≈ are worked out from the molar mass of the structure shown. Like-named read-outs stand apart in the source and are kept apart here.

Legend:
A. fumigatus CEA10 = assay: Fatty acid profile of 24-hour biofilms by GC-MS; type: cell-based, Aspergillus fumigatus; details: CEA10 24-hour biofilm; MBX-7591 0.58 µg/mL, voriconazole 0.0625 µg/mL
[1] = Mammalian cell cytotoxicity (CC50); type: cell-based; details: human, HeLa cells (ATCC CCL-2)
Experimental: The half-maximal cytotoxic concentration (CC50) of each compound against HeLa cells (ATCC CCL-2) was measured as previously described ([50]). Each assay comprised three technical replicates, and each assay was repeated at least once. The mean values for each biological replicate were averaged, and the CC50 was determined using a four-parameter nonlinear curve fitting algorithm (GraphPad Prism). The average of the CC50s from two biological replicates was calculated and reported.

Mucor spp. = assay: CLSI-based microbroth dilution MIC, spectrum of activity; type: cell-based; details: for MIC: Mucor
Coccidioides spp. = assay: microbe, parasite or virus in culture; type: cell-based
Cryptococcus neoformans = assay: CLSI-based microbroth dilution MIC for yeast; type: cell-based; details: for MIC: Cryptococcus neoformans
Histoplasma capsulatum = assay: microbe, parasite or virus in culture; type: cell-based
Aspergillus flavus = assay: CLSI-based microbroth dilution MIC, spectrum of activity; type: cell-based; details: for MIC: Aspergillus flavus
[2] = Liver microsome stability; type: in vitro ADME; details: mouse; murine liver microsomes, NADPH; read-out: MLMS (t1/2)
Experimental: To examine the potential for first-pass metabolism of analogs in the liver, the stability of analogs in the presence of liver microsome preparations (Eurofins Discovery for human, dog, and rat; Xenotech for mouse) was measured using the method of Kuhnz and […] ([52]). The amount of parent compound remaining after incubation with microsomes in the presence of NADPH over a 30-min time range was measured using a reverse-phase liquid chromatography/mass spectroscopy method that was customized for each compound. Half-lives were calculated using linear regression analysis of several time points.

Aspergillus fumigatus [3] = assay: Agar-based colony biofilm assay; type: cell-based; details: for inhibition at 0.58 µg/mL / inhibition at 1.16 µg/mL: Aspergillus fumigatus; for growth of parental wild-type strain in the presence of MBX-7591 (of untreated): concentration not given
Aspergillus fumigatus [4] = assay: CLSI-based microbroth dilution MIC, A. fumigatus strains
Aspergillus fumigatus [5] = assay: FIC checkerboard synergy assay, A. fumigatus; type: cell-based; details: for MIC: Aspergillus fumigatus
Candida auris = assay: CLSI-based microbroth dilution MIC for yeast; type: cell-based; details: Candidozyma auris
Aspergillus fumigatus [6] = assay: Colony recovery after CLSI MIC testing (fungicidal test); type: cell-based; details: at MIC (2.453 μg/ml) and 2X MIC (4.906 μg/ml)
Experimental: Perhaps consistent with these lipid profiling data, transmission electron microscopy images of MBX-7591-treated cells reveal a loss of cellular membrane integrity, a large increase in the electron translucent cell wall, and a significant increase in electron density in the cytoplasm (Fig. S1B). These TEM images are consistent with cell death upon MBX-7591 treatment.
115 Supplementary Figure 1. MBX-7591 pre-treatment induces cell death.
116 A) Biofilms grown for 12 hours with MBX-7591 pre-treatment (PT) are more susceptible to
117 subsequent 6-hour voriconazole (VCZ) treatment. MBX-7591 PT + VCZ biofilms show higher
118 sytox staining and nuclear collapse indicative of increased cell membrane permeability and cell
119 death. B) TEM image of cross section of Aspergillus fumigatus hyphae from 24-hour biofilms
120 grown in vehicle control or 0.588 μg/ml MBX-7591. MBX-7591 induces changes in the cell wall,
121 increased vacuolization and increased cytosolic density (black arrows). C) MBX-7591 reduces
CLSI assay done as described in methods and incubated for 48 hours at
124 37°C, 5%CO2. Subsequently 100 µL of untreated control, ½ MIC, MIC and 2X MIC wells were
125 plated onto GMM and incubated at 37°C, 5%CO2 for 48h. Representative images of fungal
126 growth of 2 independent biological replicates shown.

CYP3A4 = molecular target: T1, CYP3A4 (Homo sapiens, UniProt P08684); assay: CYP450 inhibition; type: in vitro ADME; details: Human Cytochrome P450 kit (BD Gentest), read-out: Human CYP3A4 inhibition (%INH at 10 µM)
T1 construct: purchased BD Gentest Corp, Woburn, MA, USA
T1 sequence (P08684 whole entry): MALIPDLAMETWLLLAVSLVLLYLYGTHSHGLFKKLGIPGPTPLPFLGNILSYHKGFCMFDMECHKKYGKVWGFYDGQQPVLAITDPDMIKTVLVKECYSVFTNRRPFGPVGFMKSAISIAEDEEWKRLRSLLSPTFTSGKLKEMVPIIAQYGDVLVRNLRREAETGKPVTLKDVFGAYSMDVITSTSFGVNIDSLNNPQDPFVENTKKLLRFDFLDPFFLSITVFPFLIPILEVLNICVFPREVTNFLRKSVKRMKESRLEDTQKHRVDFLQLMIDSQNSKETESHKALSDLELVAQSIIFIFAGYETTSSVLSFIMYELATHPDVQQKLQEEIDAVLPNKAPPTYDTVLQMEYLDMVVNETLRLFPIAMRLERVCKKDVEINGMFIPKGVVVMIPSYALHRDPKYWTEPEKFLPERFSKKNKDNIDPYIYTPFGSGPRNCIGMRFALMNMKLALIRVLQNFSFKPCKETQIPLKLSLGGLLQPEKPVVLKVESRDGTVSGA
Experimental: Inhibition of the CYP450 enzyme CYP3A4 by each compound at a final concentration of 10 µM was measured using a commercially available Human Cytochrome P450 kit (BD Gentest Corp, Woburn, MA, USA) according to the manufacturer’s instructions.

Scedosporium spp. = assay: CLSI-based microbroth dilution MIC, spectrum of activity; type: cell-based
[7] = read-out: MIC UTHSC, strain DI14-269
[8] = read-out: MIC UTHSC, strain DI14-284
[9] = read-out: MIC UTHSC, strain DI17-143

O=C(c1ccsc1)N1CCC(Cc2ccc(COc3ccncc3)cc2)CC1 [MBX-7591]
C14:0 relative percentage of fatty acids (A. fumigatus CEA10): 0.19 ± 0.057
C15:0 relative percentage of fatty acids (A. fumigatus CEA10): 0.59 ± 0.034
C16:0 (palmitic acid) relative percentage of fatty acids (A. fumigatus CEA10): 23.30 ± 0.48
C16:1n7 relative percentage of fatty acids (A. fumigatus CEA10): 0.68 ± 0.040
C17a relative percentage of fatty acids (A. fumigatus CEA10): 0.15 ± 0.025
C18:0 (stearic acid) relative percentage of fatty acids (A. fumigatus CEA10): 4.44 ± 0.95
C18:1n7 relative percentage of fatty acids (A. fumigatus CEA10): 1.30 ± 0.18
C18:1n9 (oleic acid) relative percentage of fatty acids (A. fumigatus CEA10): 20.48 ± 1.30
C18:2n6 relative percentage of fatty acids (A. fumigatus CEA10): 48.87 ± 0.91
CC50 [1]: > 100 µM
MIC (Mucor spp.; CBS277, strain CBS 277.49): > 39.2 µg/mL
MIC (Mucor spp.; strain DI15-131, read-out: MIC UTHSC): > 32 µg/mL
MIC UTHSC (Mucor spp.; strain Mucor1): > 32 µg/mL
MIC UTHSC (Mucor spp.; strain Mucor2): > 32 µg/mL
MIC (Coccidioides spp.; [7]): > 32 µg/mL
MIC (Coccidioides spp.; [8]): 8 µg/mL (≈ 20.4 µM)
MIC (Coccidioides spp.; [9]): > 32 µg/mL
MIC (Cryptococcus neoformans; strain H99, 0% CO2, read-out: MIC 0% CO2): > 39.2 µg/mL
MIC (Cryptococcus neoformans; strain H99, 5% CO2, Table S4, read-out: MIC 5% CO2): 2.45 µg/mL (≈ 6.24 µM)
MIC (Cryptococcus neoformans; strain H99, MIC obtained under 5% CO2, Table S3): 2.45 µg/mL (≈ 6.24 µM)
MIC (Cryptococcus neoformans; strain H99, read-out: MIC UTHSC): > 32 µg/mL
MIC 0% CO2 (Cryptococcus neoformans; strain A7-35-23, 0% CO2): > 39.25 µg/mL
MIC 5% CO2 (Cryptococcus neoformans; strain A7-35-23, 5% CO2): 2.45 µg/mL (≈ 6.24 µM)
MIC 0% CO2 (Cryptococcus neoformans; strain C23, 0% CO2): > 39.25 µg/mL
MIC 5% CO2 (Cryptococcus neoformans; strain C23, 5% CO2): 2.45 µg/mL (≈ 6.24 µM)
MIC 0% CO2 (Cryptococcus neoformans; strain JEC21, 0% CO2): > 39.25 µg/mL
MIC 5% CO2 (Cryptococcus neoformans; strain JEC21, 5% CO2): 2.45 µg/mL (≈ 6.24 µM)
MIC (Histoplasma capsulatum; [7]): 4 µg/mL (≈ 10.2 µM)
MIC (Histoplasma capsulatum; [8]): 1 µg/mL (≈ 2.55 µM)
MIC (Histoplasma capsulatum; [9]): 0.5 µg/mL (≈ 1.27 µM)
MIC (Aspergillus flavus; ATCC204304, strain ATCC 204304): > 32 µg/mL
MIC (Aspergillus flavus; strain Aflav1): > 32 µg/mL
MIC UTHSC (Aspergillus flavus; strain Aflav2): > 32 µg/mL
half-life [2]: 40 min
inhibition at 0.58 µg/mL (Aspergillus fumigatus [3]; AFS35, 0.58 μg/mL, read-out: growth inhibition): ~61%
inhibition at 1.16 µg/mL (Aspergillus fumigatus [3]; AFS35, 1.16 μg/mL, read-out: growth inhibition): ~70%
inhibition at 0.58 µg/mL (Aspergillus fumigatus [3]; phspA:atrR, 0.58 μg/mL, read-out: growth inhibition): ~9%
inhibition at 1.16 µg/mL (Aspergillus fumigatus [3]; phspA:atrR, 1.16 μg/mL, read-out: growth inhibition): ~19%
inhibition at 1.16 µg/mL (Aspergillus fumigatus [3]; read-out: growth inhibition, hspA-atrR;ΔsrbA, 1.16 µg/mL): ~81%
inhibition at 0.58 µg/mL (Aspergillus fumigatus [3]; read-out: growth inhibition, ΔatrR, 0.58 μg/mL): ~69%
inhibition at 1.16 µg/mL (Aspergillus fumigatus [3]; read-out: growth inhibition, ΔatrR, 1.16 μg/mL): ~86%
inhibition at 0.58 µg/mL (Aspergillus fumigatus [3]; read-out: growth inhibition, ΔsrbA, 0.58 μg/mL): ~62%
inhibition at 1.16 µg/mL (Aspergillus fumigatus [3]; read-out: growth inhibition, ΔsrbA, 1.16 μg/mL): ~72%
inhibition at 1.16 µg/mL (Aspergillus fumigatus [3]; read-out: growth inhibition, ΔsrbAΔatrR, 1.16 µg/mL): ~92%
growth of parental wild-type strain in the presence of MBX-7591 (of untreated) (Aspergillus fumigatus [3]; first of two values): ~ 67%
growth of parental wild-type strain in the presence of MBX-7591 (of untreated) (Aspergillus fumigatus [3]; second of two values): ~ 89%
effect of CO2 levels on A. fumigatus susceptibility (Aspergillus fumigatus [4]): not impacted by CO2 levels
MIC (Aspergillus fumigatus [4]; Aspergillus fumigatus, read-out: MIC (activity against various A. fumigatus strains)): ~2 µg/mL (≈ 5.1 µM)
average FIC (Aspergillus fumigatus [5]): 0.5
MIC (Aspergillus fumigatus [5]; strain 08-19-02-61, alone): 2.45 µg/mL
MIC (Aspergillus fumigatus [5]; strain 08-31-08-91, alone): 4.91 µg/mL
MIC (Aspergillus fumigatus [5]; strain F11628, alone): 2.45 µg/mL
MIC (Aspergillus fumigatus [5]; strain F15390 (caf8), alone): 2.45 µg/mL
FIC value (Aspergillus fumigatus [5]; CEA10, MBX-7591 + 7.81 μg/ml OA): 4
FIC value (Aspergillus fumigatus [5]; CEA10, MBX-7591 + 15.63 μg/ml OA): 8
FIC value (Aspergillus fumigatus [5]; CEA10, MBX-7591 + 31.25 μg/ml OA): > 8
FIC value (Aspergillus fumigatus [5]; strain 08-19-02-61, MBX-7591 + VCZ): 0.5
FIC value (Aspergillus fumigatus [5]; strain 08-31-08-91, MBX-7591 + VCZ): 0.5
FIC score (Aspergillus fumigatus [5]; strain CEA10, MBX-7591 + FLC): 0.312
FIC value (Aspergillus fumigatus [5]; strain CEA10, MBX-7591 + VCZ): 0.375–0.5
FIC value (Aspergillus fumigatus [5]; strain F11628, MBX-7591 + VCZ): 0.3125–0.375
FIC value (Aspergillus fumigatus [5]; strain F15390 (caf8), MBX-7591 + VCZ): 0.5
MIC (Candida auris; Clade I, Clade III): > 39.2 µg/mL
MIC (Candida auris; NIH: DI17-47, DI17-48, DI17-46, read-out: MIC UTHSC): > 32 µg/mL
colony formation after 48 hours of treatment of conidia (Aspergillus fumigatus [6]): No colony-forming units were observed at or 2× the MIC
inhibition at 10 µM (CYP3A4): 89%
MIC (Scedosporium spp.; NIH: DI19-67, DI15-15, DI19-66, read-out: MIC UTHSC): > 32 µg/mL
MIC (Scedosporium spp.; apiospermum (7D7), prolificans (7D8), JI 2018 "typical" (14E6)): > 39.2 µg/mL
